# From article PMC7467771, “Lipophilic Arginine Esters: The Gateway to Preservatives without Side Effects” (Molecular Pharmaceutics, 2020)
# Assays:
# [1] = octanol/water partition coefficient (log P) by TNBS assay; format: physicochemical; conditions: octanol/water mixture 1:1 v/v; mean, n = 3
# Protocol: Log P of Arg and both Arg-esters were determined using an already described method.[15] Each compound was dissolved in an octanol/water mixture (1:1, v/v). Afterward, octanol and water phases were separated by a high-speed mini centrifuge (Fisher Scientific, Illinois USA), and the concentration of each compound in each phase was determined by the TNBS assay. For this, a 50 μL volume from each phase was diluted 10 times with 0.1 M sodium bicarbonate (pH 8.5) containing 40% (v/v) isopropyl alcohol. After dilution, 250 μL of the TNBS reagent (0.01%, v/v) prepared in 0.1 M sodium bicarbonate (pH 8.5) was added to each sample that was incubated at 37 °C. After 2 h, the reaction was stopped by adding 250 μL of 10% (m/v) SDS and 125 μL of 1 M HCl. The absorbance of each sample was measured at 335 nm using a Spark multifunctional microplate reader (Tecan Austria, GmbH). The logarithm of the octanol/water absorbance ratio was expressed as log P for each sample.
# [2] = critical micelle concentration (CMC), pyrene fluorescent method; format: physicochemical; conditions: aqueous solution, 37 °C, 3 h
# Protocol: The critical micelle concentration (CMC) is an important solution property of any amphiphilic compound and can be defined as the minimum concentration at which micelles start to form. The CMC of Arg-esters was determined using a pyrene fluorescent method as described in a previous publication.[15] Methanol solution of pyrene (2 μM) was added to several vials (250 μL per vial) and evaporated overnight to leave thin dried films of pyrene. Aqueous solutions of Arg-esters were prepared in a wide concentration range and were added to individual vials containing pyrene films in a 500 μL volume. The samples were left stirring at 400 rpm, 37 °C. After 3 h, the fluorescence of each sample was measured at the excitation wavelength of 334 nm, and emissions were taken at 372 (I1) nm and 393 nm (I3). A graph was plotted between the fluorescent intensity ratio (I3/I1) and the log concentration of Arg-ester. Then, from the resulting curve for each Arg-ester, the “CMC value” was calculated. For the calculation of the CMC, the segmental linear regression method was used, and CMC values were obtained as the concentration corresponding to the intercept of the extrapolations of the first segment and the rapidly varying second segment of the I3/I1 versus log concentration plot. […]
# Caco-2 cells = assay: resazurin assay, cytotoxicity; format: cell-based; conditions: for cytotoxicity (samples showing >80% cell viability considered nontoxic): Caco-2, 4 h incubation, at 3000 μg mL^–1; for EC50: Homo sapiens, Caco-2, 4 h, read-out: EC50 (concentration causing 50% cell death)
# Protocol: The resazurin assay was used to determine the cytotoxic potential of Arg-esters according to a previous method with some minor modifications.[15] Caco-2 cells were seeded in a 24-well cell culture plate at 25 000 cells per well density and kept in an incubator at 37 °C under a 95% relative humidity environment and 5% CO2 level. Minimum essential medium (MEM) supplemented with streptomycin (0.1 mg […]), penicillin (100 units […]), and fetal calf serum (FCS) 10% (v/v) was used for growing cells. During a growth period of 14 days, the medium was replaced every other day. On the day of the experiment, test solutions of Arg-OL and Arg-DT esters were prepared in 25 mM HBS (HEPES buffered saline) buffer (pH 7.4) in the concentration range of 1000–3000 μg mL^–1. For comparison, the same concentrations of BAC and cetrimide were also prepared in HBS. HBS without any addition was used as a positive control, and Triton X-100 (2%, v/v) in HBS was used as a negative control. The growth medium from all wells of the cell culture plate was removed, and cells were washed three times with HBS preheated at 37 °C. Each test solution and controls were then added to individual wells in a volume of 500 μL, and the cell culture plate was incubated under the same conditions. After 4 h, the solution from each well was removed, and cells were washed with HBS (pH 7.4) preheated at 37 °C. Then, 500 μL of resazurin (2.2 mM) per well was added and incubated for further 3 h under the same conditions. Afterward, the fluorescence of the supernatant from each well was measured at the excitation wavelength of 540 nm and an emission wavelength of 590 nm. Cell viability was calculated by the equation: [drawing 4]
# [3] = tested on: Bacillus subtilis ATCC 6633; assay: disk diffusion method; format: cell-based; conditions: Bacillus subtilis, ATCC6633, read-out: zones of inhibition
# Protocol: (§1) Following bacterial strains were used for antimicrobial susceptibility testing: Escherichia coli ATCC 25922, Staphylococcus aureus ATCC 29213, Bacillus subtilis ATCC 6633, and Enterococcus faecalis ATCC 19433, which were obtained from the American Type Culture Collection (ATCC, Virginia, USA).
# (§2) The disk diffusion method was used for the initial assessment of the antimicrobial activity of Arg-esters. Mueller Hinton agar (MHA, Biomerieux) medium was prepared according to the manufacturer protocol and poured into Petri dishes. All testing microorganisms were dissolved in saline and set to a 0.5 McFarland standard turbidity. This corresponds to a bacterial concentration of 1.5 × 10^8 colony-forming units per milliliter (CFU mL^–1). The bacterial suspension was then swabbed over solidified MHA Petri dishes ensuring homogeneous distribution. The test solutions of Arg-OL, Arg-DT, BAC, and cetrimide were prepared in water with 10% (v/v) DMSO at a concentration of 10 mg mL^–1. Water with 10% (v/v) DMSO was used as a negative control. The diffusion disks of about 6 mm in diameter were prepared from Whatman filter paper. After immersing disks in the above-prepared test solutions, they were placed on MHA plates already swabbed with different bacteria. After overnight incubation of Petri dishes at 37 °C, clear zones of bacterial growth inhibition around disks were measured.
# [4] = tested on: Enterococcus faecalis ATCC 19433; assay: disk diffusion method; format: cell-based; conditions: Enterococcus faecalis, ATCC19433, read-out: zones of inhibition
# Protocol: as §1, §2
# [5] = tested on: Escherichia coli ATCC 25922; assay: disk diffusion method; format: cell-based; conditions: Escherichia coli, ATCC25922, read-out: zones of inhibition
# Protocol: as §1, §2
# [6] = tested on: Staphylococcus aureus ATCC 29213; assay: disk diffusion method; format: cell-based; conditions: Staphylococcus aureus, ATCC29213, read-out: zones of inhibition
# Protocol: as §1, §2
Compound,logP [1],critical micelle concentration (CMC) [2] [mM],cytotoxicity (samples showing >80% cell viability considered nontoxic) (Caco-2 cells),EC50 (Caco-2 cells) [µg/mL],zone of inhibition at 10 µg/mL [3] [mm],zone of inhibition at 10 µg/mL [4] [mm],zone of inhibition at 10 µg/mL [5] [mm],zone of inhibition at 10 µg/mL [6] [mm]
"CCCCCCCCCCCCC(CCCCCCCCCC)COC(=O)[C@@H](N)CCCNC(=N)N.O=C(O)C(F)(F)F (stereo partly shown) [Arg-DT, 2-Decyltetradecyl Argininate Trifluoroacetate]",0.6,0.013,noncytotoxic,4500,18,16,9,16
"CCCCCCCCC=CCCCCCCCCOC(=O)[C@@H](N)CCCNC(=N)N.O=C(O)C(F)(F)F [Arg-OL, Octadec-9-en-1-yl Argininate Trifluoroacetate]",0.3,0.52,cytotoxic,2600,16,18,9,19
